Values quoted from earlier work in publication PMC6256996, “Natural products as new antimitotic compounds for anticancer drug development” (Clinics, 2018).
Like-named read-outs stand apart in the source and are kept apart here.

Key:
HL-60 cells [1] = test system: HL-60 cells; set-up: method as in PMID 16316665; conditions: lowest treatment concentration (3.97 μmol.L^-1)
HL-60 cells [2] = test system: HL-60 cells; set-up: method as in PMID 16316665; conditions: 3 hours
K562 cells = test system: K562 cells; set-up: method as in PMID 15787450, doi:10.1007/s11418-006-0118-3; conditions: 48-hour incubation
HL-60 cells [3] = test system: HL-60 cells; set-up: method as in PMID 16316665
HL60 = test system: HL60; set-up: method as in doi:10.2174/1570180814666171012162557; conditions: for SI PBMC/HL-60: cytotoxic selectivity index, IC50 for PBMCs/cancer cell line
OVCAR-8 = test system: OVCAR-8; set-up: method as in doi:10.2174/1570180814666171012162557; conditions: for SI PBMC/OVCAR-8: cytotoxic selectivity index, IC50 for PBMCs/cancer cell line
HCT-8 = test system: HCT-8; set-up: method as in doi:10.2174/1570180814666171012162557; conditions: for SI PBMC/HCT-8: cytotoxic selectivity index, IC50 for PBMCs/cancer cell line
[4] = test system: peripheral blood mononuclear cells (PBMCs); set-up: method as in doi:10.2174/1570180814666171012162557; conditions: 72h of treatment; mean±SEM

Compound | HL-60 cell population with depolarized mitochondria (HL-60 cells [1]) [%] | Inhibition of BrdU incorporation during the S phase (HL-60 cells [2]; 3.97 μmol.L^-1) [%] | Inhibition of BrdU incorporation during the S phase (HL-60 cells [2]; 7.95 μmol.L^-1) [%] | Inhibition of BrdU incorporation during the S phase (HL-60 cells [2]; 15.9 μmol.L^-1) [%] | IC50, proliferation of K562 cells (K562 cells) [µg/mL] | Cells with DNA fragmentation (HL-60 cells [3]; HL-60 cells permeabilized with Triton X-100, 24-hour treatment, 3.97, 7.95 and 15.9 μmol.L^-1) [%] | Cell cycle arrest (DNA content) (HL-60 cells [3]; HL-60 cells, 15.9 μmol.L^-1) | Membrane damage (HL-60 cells [3]; HL-60 cells, 24-hour treatment, 3.97, 7.95 and 15.9 μmol.L^-1) | SI PBMC/HL-60 (HL60; 72h of treatment) | SI PBMC/OVCAR-8 (OVCAR-8; 72h of treatment) | SI PBMC/HCT-8 (HCT-8; 72h of treatment) | IC50 [4] [nM] | IC50 (HL60; 72h of treatment, mean±SEM, read-out: HL60 (mean IC50±SEM)) [nM] | IC50 (OVCAR-8; 72h of treatment, mean±SEM, read-out: OVCAR-8 (mean IC50±SEM)) [nM] | IC50 (HCT-8; 72h of treatment, mean±SEM, read-out: HCT-8 (mean IC50±SEM)) [nM] | IC50 (HL60; read-out: IC50 in HL-60 tumor cell line) [nM] | IC50 (OVCAR-8; read-out: IC50 in OVCAR-8 tumor cell line) [nM] | IC50 (HCT-8; read-out: IC50 in HCT-8 tumor cell line) [nM]
COc1ccc2c(c1)O[C@@H]1c3cc(OC)c(OC)cc3OC[C@H]21 [(+)2,3,9-trimethoxypterocarpan, (+)2,3,9-Trimethoxypterocarpan] | 38.6 | 37 | 38 | 56 | 0.8 | ~50 | arrested at the G2/M phase transition | no significant membrane damage | – | – | – | – | – | – | – | – | – | –
COc1ccc(/C=C\c2cc(OC)c(OC)c(OC)c2)cc1O [CA-4, combretastatin A-4, reference compound] | – | – | – | – | – | – | – | – | 1.45 | 6.40 | 0.60 | 3.2 | – | – | – | – | – | –
COc1cc(C(=O)N/N=C/c2ccccc2)cc(OC)c1OC [LASSBio-1586] | – | – | – | – | – | – | – | – | 4.60 | 4.60 | 3.0 | 1340 ± 65 | 290 ± 1.2 | 290 ± 40 | 450 ± 81 | – | – | –
COc1cc(C(=O)N/N=C/c2cc3ccccc3s2)cc(OC)c1OC [LASSBio-1920] | – | – | – | – | – | – | – | – | 333.30 | 11.11 | 20.0 | 100 ± 11 | – | – | – | 0.3 | 9 | 5
